In test [1] the target is T1, hTLR7 (Homo sapiens, UniProt Q9NYK1).
T1 construct: host or cells: HEK-Blue hTLR7 (HEK293-derived reporter cells with SEAP read-out)
T1 sequence (Q9NYK1 27-1049): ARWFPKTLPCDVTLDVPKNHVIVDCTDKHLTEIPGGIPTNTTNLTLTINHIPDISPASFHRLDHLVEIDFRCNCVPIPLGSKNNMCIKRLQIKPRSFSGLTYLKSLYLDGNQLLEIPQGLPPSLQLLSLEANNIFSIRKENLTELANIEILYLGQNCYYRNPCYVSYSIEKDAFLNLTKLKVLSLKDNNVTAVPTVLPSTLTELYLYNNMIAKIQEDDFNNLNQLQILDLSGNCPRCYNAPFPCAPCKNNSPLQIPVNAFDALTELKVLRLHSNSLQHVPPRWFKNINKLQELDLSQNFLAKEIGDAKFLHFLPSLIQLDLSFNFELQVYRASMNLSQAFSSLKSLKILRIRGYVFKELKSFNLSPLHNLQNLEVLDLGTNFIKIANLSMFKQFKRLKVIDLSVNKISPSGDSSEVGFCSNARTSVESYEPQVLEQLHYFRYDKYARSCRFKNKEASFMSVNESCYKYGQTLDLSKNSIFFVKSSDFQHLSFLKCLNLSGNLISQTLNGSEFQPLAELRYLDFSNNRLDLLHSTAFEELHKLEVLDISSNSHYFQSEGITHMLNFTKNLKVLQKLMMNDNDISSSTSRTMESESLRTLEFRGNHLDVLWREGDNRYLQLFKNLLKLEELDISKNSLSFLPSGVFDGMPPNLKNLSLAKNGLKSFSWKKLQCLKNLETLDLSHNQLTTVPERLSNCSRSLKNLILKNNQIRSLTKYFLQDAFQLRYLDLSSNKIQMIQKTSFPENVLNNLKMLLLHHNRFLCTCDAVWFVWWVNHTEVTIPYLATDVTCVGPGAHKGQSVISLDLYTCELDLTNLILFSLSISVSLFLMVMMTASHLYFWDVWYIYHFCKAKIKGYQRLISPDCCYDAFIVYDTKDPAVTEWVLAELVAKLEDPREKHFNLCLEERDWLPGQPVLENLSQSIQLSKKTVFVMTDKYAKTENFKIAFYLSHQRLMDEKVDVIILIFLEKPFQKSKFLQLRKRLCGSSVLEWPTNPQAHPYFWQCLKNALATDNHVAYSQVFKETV
Description: EC50 assay for small molecule agonists, HEK-Blue hTLR7 cells, SEAP readout. It counts as cell-based. The following applies: agonist activity, nd = EC50 larger than 25 μM. How it is done: (§1) Reagents used for cell culture and detection for HEK-Blue™ hTLR7, HEK-Blue™ hTLR8 and control HEK-Blue Nu112k were as follows: DMEM (4.5 g/L glucose), bovine serum FBS, streptomycin ([…]), penicillin (50 U/mL), Blasticidin (10 mg/mL), Zeocin™ (10 mg/mL), Normocin (50 mg/mL), and HEK-Blue™ Detection. Basal medium was as follows: DMEM +10% FBS+streptomycin+penicillin+Normocin ([…]); selective medium for resistance genes was as follows: DMEM+10% FBS+streptomycin+penicillin+Normocin (1001 μg/mL)+Blasticidin (1001 μg/mL)+Zeocin™ (1001 μg/mL).
(§2) Cell preparation: HEK-Blue™ hTLR7 and HEK-Blue™ hTLR8 cell lines were purchased from Invivogen. The cells frozen in liquid nitrogen were taken, quickly placed in a water bath at 37° C., shaken occasionally, and completely melted within 1 min. The cells were transferred to 15 mL of pre-heated basal medium and resuspended; centrifuged at 1,000 r/min for 5 min, supernatant discarded; resuspended with 1 mL of basal medium, transferred to a T25 culture flask, supplemented to 5 mL with the medium, and incubated in an incubator at 37° C.; after stable passage twice, and subjected to selective antibiotic screening: HEK-Blue™ hTLR7 or HEK-Blue™ hTLR8: 100 μg/mL Zeocin+Blasticidin (30 μg/mL), HEK-Blue Nu112-k: 100 μg/mL Zeocin. The fluid was changed 3 times a week. When the number of cells reached 70%-80%, PBS was added, and the cells were exfoliated by gently pipetting.
(§3) Activity assay steps: (1) adding a test sample to a 96-well plate at 20 μL/well (triplicate wells were set); (2) adding 20 μL of positive control (e.g., R848), and adding 20 μL of negative control (e.g., ddH2O); (3) removing a T75 culture flask from the incubator, discarding the medium, adding 5-10 mL of pre-heated PBS, and gently pipetting the cells; adding 2-5 mL of PBS to the culture flask, incubating the culture flask in the incubator for 1-2 min, and then gently pipetting the cells to make them exfoliated; (4) mixing the mixture well, and counting the cells, without centrifugation; resuspending the cells with HEK-Blue™ assay solution and adjusting the cell number, taking care not to incubate for a long time to avoid too deep background or false positive. HEK-Blue hTLR cell number was about 2.2×10^5/mL, 180 μL/well (about 40000 cells), and HEK-Blue Nu112-k cell number was about 2.8×10^5/mL, 180 μL/well (about 50000 cells). (5) incubating the cells in the incubator at 37° C. for 6-16 h, and detecting at 620-655 nm for SEAP readings.
(§4) Effect %=(mean OD of the administration group−mean OD of the H2O group at each concentration)/(mean ODmax of the positive drug group−mean OD of the H2O group)×100. EC50 was calculated by fitting Lg [concentration]-effect curves using GraphPad Prism5 software.
(§5) Experimental results: the concentration for 50% of maximal effect (EC50) refers to a corresponding concentration of small molecules that can cause 50% of the maximal agonistic effect. […] EC50 represents a potency for agonizing the TLR8 receptor, with smaller values indicating better efficacy. […] In the following table, the unit of the agonist activity is nanomole, unless otherwise specified.

The target in test [2] is T2, hTLR8 (Homo sapiens, UniProt Q9NR97).
T2 construct: host or cells: HEK-Blue hTLR8 (HEK293-derived reporter cells with SEAP read-out)
T2 sequence (Q9NR97 27-1041): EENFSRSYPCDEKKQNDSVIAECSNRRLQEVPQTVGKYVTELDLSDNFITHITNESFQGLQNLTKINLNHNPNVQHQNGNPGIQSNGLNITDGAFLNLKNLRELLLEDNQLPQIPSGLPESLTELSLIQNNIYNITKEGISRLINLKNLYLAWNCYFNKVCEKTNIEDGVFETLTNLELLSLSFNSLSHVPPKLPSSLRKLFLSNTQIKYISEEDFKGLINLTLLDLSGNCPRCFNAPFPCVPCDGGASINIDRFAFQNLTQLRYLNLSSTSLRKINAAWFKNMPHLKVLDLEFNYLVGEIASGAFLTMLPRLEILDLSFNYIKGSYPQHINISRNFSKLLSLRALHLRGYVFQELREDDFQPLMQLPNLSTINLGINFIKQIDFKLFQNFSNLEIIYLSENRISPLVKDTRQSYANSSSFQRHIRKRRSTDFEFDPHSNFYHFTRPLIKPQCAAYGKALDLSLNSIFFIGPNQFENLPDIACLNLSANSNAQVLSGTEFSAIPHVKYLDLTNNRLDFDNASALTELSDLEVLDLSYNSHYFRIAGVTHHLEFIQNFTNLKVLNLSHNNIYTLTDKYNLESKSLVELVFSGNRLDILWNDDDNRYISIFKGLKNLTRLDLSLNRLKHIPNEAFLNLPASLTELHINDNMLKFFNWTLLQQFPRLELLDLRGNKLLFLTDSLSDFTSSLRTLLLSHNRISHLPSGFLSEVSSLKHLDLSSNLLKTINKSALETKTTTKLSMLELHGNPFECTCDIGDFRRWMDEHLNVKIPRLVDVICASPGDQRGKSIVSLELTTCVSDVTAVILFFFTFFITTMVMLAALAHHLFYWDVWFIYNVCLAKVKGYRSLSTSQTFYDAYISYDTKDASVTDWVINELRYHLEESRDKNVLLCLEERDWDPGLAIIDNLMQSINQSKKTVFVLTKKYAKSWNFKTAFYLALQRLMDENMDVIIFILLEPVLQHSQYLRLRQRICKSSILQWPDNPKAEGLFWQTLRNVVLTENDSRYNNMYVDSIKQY
Description: EC50 assay for small molecule agonists, HEK-Blue hTLR8 cells, SEAP readout. It counts as cell-based. As to the method: as §1, §2, §3, §4, §5

Where [3] appears, read: agonist activity, read-out: hTLR8(EC50).

The structures appear in SMILES notation. Like-named read-outs stand apart in the source and are kept apart here.

`CCCCCc1cc2nc(Cc3ccc(CN(C)C)cc3)ccc2nc1N` [Compound N1]: the EC50 in test [1] was over 25000 nM; in test [2] (setting [3]) it was 398 nM.
For the compound `CCCCCc1cc2nc(Cc3ccc(CN4CCCC4)cc3)ccc2nc1N` [Compound N2], the EC50 in test [1] is over 25000 nM; in test [2] (setting [3]), 480 nM.
For `CCCCCc1cc2nc(Cc3ccc(CN4CCOCC4)cc3)ccc2nc1N` [Compound N3], in that order: over 25000 nM and 1580 nM.
For `CCCCCc1cc(Cc2ccc(CN(C)C)cc2)c(C)nc1N` [Compound N4], the EC50 was over 25000 nM in test [1] and 58 nM in test [2] (setting [3]).
For `CCCCCc1cc(Cc2ccc(CN)cc2)c(C)nc1N` [Compound N5], the EC50 in test [1] was over 25000 nM; in test [2] (setting [3]), 122 nM.
For `CCCCCc1cc(Cc2ccc(CNC)cc2)c(C)nc1N` [Compound N6], in that order: over 25000 nM and 84 nM.
The matching figures for `CCCCCc1cc(Cc2ccc(CN3CCCC3)cc2)c(C)nc1N` [Compound N7]: over 25000 nM and 63 nM.
The matching figures for `CCCCCc1cc(Cc2ccc(CN3CCOCC3)cc2)c(C)nc1N` [Compound N8]: over 25000 nM and 428 nM.
Take `CCCCCc1cc(Cc2ccc(CN3CCCCC3)cc2)c(C)nc1N` [Compound N9]: the EC50 in test [1] was over 25000 nM; in test [2] (setting [3]), 54 nM; in test [2] (read-out: concentration for 50% of maximal effect (EC50) hTLR8), 40 nM.
Turning to `CCCCCc1cc(Cc2ccc(CN3CCNCC3)cc2)c(C)nc1N` [Compound N10], the EC50 in test [1] was over 25000 nM; in test [2] (setting [3]) it was 134 nM.
For `CCCCCc1cc(Cc2ccc(CN3CCN(C)CC3)cc2)c(C)nc1N` [Compound N11], in that order: over 25000 nM and 151 nM.
`CCCCCc1cc(Cc2ccc(CN3CCCCCC3)cc2)c(C)nc1N` [Compound N12]: the EC50 in test [1] was over 25000 nM; in test [2] (setting [3]), 109 nM.
`CCCCCc1cc(Cc2ccc(CN(C)CC(=O)OC)cc2)c(C)nc1N` [Compound N13]: the EC50 in test [1] is over 25000 nM; in test [2] (setting [3]), 3000 nM.
For `CCCCCc1cc(Cc2ccc(CN(C)CC(=O)O)cc2)c(C)nc1N` [Compound N14], in that order: over 25000 nM and over 4000 nM.
For `CCCCCc1cc(Cc2ccc(CN(C)CCC(=O)OC)cc2)c(C)nc1N` [Compound N15], in that order: over 25000 nM and 628 nM.
The matching figures for `CCCCCc1cc(Cc2ccc(CN(C)CCC(=O)O)cc2)c(C)nc1N` [Compound N16]: over 25000 nM and over 4000 nM.
As to `CCCCCc1cc(Cc2ccc(CN3CCC3)cc2)c(C)nc1N` [Compound N17], the EC50 in test [1] was over 25000 nM; in test [2] (setting [3]), 121 nM.
The matching figures for `CCCCCc1cc(Cc2ccc(CN3CC[C@H](O)C3)cc2)c(C)nc1N` [Compound N18]: over 25000 nM and 124 nM.
The matching figures for `CCCCCc1cc(Cc2ccc(CN3CC[C@@H](O)C3)cc2)c(C)nc1N` [Compound N19]: over 25000 nM and 104 nM.
For the compound `CCCCCc1cc(Cc2ccc(CNC3CC3)cc2)c(C)nc1N` [Compound N20], the EC50 in test [1] was over 25000 nM; in test [2] (setting [3]), 130 nM.
The matching figures for `CCCCCc1cc(Cc2ccc(CN3CC(O)C3)cc2)c(C)nc1N` [Compound N21]: over 25000 nM and 117 nM.
For `CCCCCc1cc(Cc2ccc(CN3CC4(COC4)C3)cc2)c(C)nc1N` [Compound N22], in that order: over 25000 nM and 81 nM.
For `CCCCCc1cc(Cc2ccc(CN(C)C)cc2F)c(C)nc1N` [Compound N23], in that order: over 25000 nM and 80 nM.
With `CCCCCc1cc(Cc2ccc(CN3CC4(COC4)C3)cc2F)c(C)nc1N` [Compound N24], the EC50 in test [1] is over 25000 nM; in test [2] (setting [3]), 113 nM.
The matching figures for `CCCCCc1cc(Cc2ccc(CN(C)CCOCCOCCC(F)(F)P(=O)(OCC)OCC)cc2)c(C)nc1N` [Compound N25]: over 25000 nM and over 4000 nM.
For `CCCCCc1cc(Cc2ccc(CN(C)CCOCCOCCC(F)(F)P(=O)(O)O)cc2)c(C)nc1N` [Compound N26], in that order: over 25000 nM and over 4000 nM.
The matching figures for `CCCCCc1cc(Cc2ccc(COC)cc2)c(C)nc1N` [Compound N27]: over 25000 nM and over 4000 nM.
With `COCCCc1cc(Cc2ccc(CN(C)C)cc2)c(C)nc1N` [Compound N28], the figures for the EC50 in test [1] and in test [2] (setting [3]) were over 25000 nM and over 4000 nM, respectively.
For `COCCCc1cc(Cc2ccc(CN3CCCC3)cc2)c(C)nc1N` [Compound N29], the EC50 in test [1] was over 25000 nM; in test [2] (setting [3]) it was over 4000 nM.

The record behind these values is patent US20240116962A1, “PYRIDINE-2-AMINE DERIVATIVE AND PHARMACEUTICAL COMPOSITION AND USE THEREOF” (TSINGHUA UNIVERSITY, priority 2020, published 2024).
